For 13 compounds, T/C results are on record in PubChem BioAssay AID180 (DTP/NCI, 2004).

One may read the T/C as the result in the treated group divided by that in the control group, in per cent.

For the test, the system named is BDF1 mice, Adenocarcinoma 755 s.c., tumor weight T/C. The test is described as follows: NCI In Vivo Anticancer Drug Screen. Data for tumor model Adenocarcinoma 755 (subcutaneous) in B6D2F1 (BDF1) mice. The conditions noted are these: endpoint: mean tumor weight, higher = larger tumour. How it is done: The antitumor activity of compounds was measured in mice bearing transplantable tumors. Survival or tumor size were measured and the results are expressed as the measurement made in the treated group (T) divided by the measurement made in the vehicle treated control group (C). The tumor model used in this assay is Adenocarcinoma 755 (subcutaneous) in B6D2F1 (BDF1) mice

[1] abbreviates: dose: 7.5 mg/kg/injection, schedule: Q01DX011 (ip), vehicle: carboxymethylcellulose (CMC).
The mark [2] stands for this setting: dose: 15.0 mg/kg/injection, schedule: Q01DX011 (ip), vehicle: carboxymethylcellulose (CMC).
Where [3] appears, read: dose: 50.0 mg/kg/injection, schedule: Q01DX011 (ip), vehicle: methylcellulose (MC).
Setting [4] is: dose: 15.0 mg/kg/injection, schedule: Q01DX011 (ip), vehicle: methylcellulose (MC).

“And” between values parts separate entries of the source, which are not always exact repeats. Identical values can stand only once.

Take `O[C@H](CN1CC1)[C@@H](O)CN1CC1`: the T/C reads like this: (dose: 0.19 mg/kg/injection, schedule: Q01DX011 (ip), vehicle: methylcellulose (MC)) 50 % of control; (dose: 0.38 mg/kg/injection, schedule: Q01DX011 (ip), vehicle: methylcellulose (MC)) 47 % of control; (dose: 0.75 mg/kg/injection, schedule: Q01DX011 (ip), vehicle: methylcellulose (MC)) 13 % of control; (dose: 1.5 mg/kg/injection, schedule: Q01DX011 (ip), vehicle: methylcellulose (MC)) 8 % of control.
With `Nc1nc2n[nH]nc2c(=O)[nH]1`, the T/C runs as follows: (dose: 11.18 mg/kg/injection, schedule: Q01DX011 (ip), vehicle: carboxymethylcellulose (CMC)) 80 % of control; (dose: 12.5 mg/kg/injection, schedule: Q01DX011 (ip), vehicle: other) 62 % of control and 80 % of control; (dose: 13.55 mg/kg/injection, schedule: Q01DX011 (ip), vehicle: carboxymethylcellulose (CMC)) 85 % of control; (dose: 17.88 mg/kg/injection, schedule: Q01DX011 (ip), vehicle: carboxymethylcellulose (CMC)) 98 % of control; (dose: 22.35 mg/kg/injection, schedule: Q01DX011 (ip), vehicle: carboxymethylcellulose (CMC)) 70 % of control and 76 % of control; (dose: 27.1 mg/kg/injection, schedule: Q01DX011 (ip), vehicle: carboxymethylcellulose (CMC)) 80 % of control. Further, the T/C is 59 % of control (dose: 29.8 mg/kg/injection, schedule: Q01DX011 (ip), vehicle: carboxymethylcellulose (CMC)); 11 % of control (dose: 37.5 mg/kg/injection, schedule: Q01DX011 (sc), vehicle: carboxymethylcellulose (CMC)); 17 % of control and 33 % of control (dose: 44.7 mg/kg/injection, schedule: Q01DX011 (ip), vehicle: carboxymethylcellulose (CMC)); 5 % of control (dose: 75.0 mg/kg/injection, schedule: Q01DX011 (sc), vehicle: carboxymethylcellulose (CMC)); 4 % of control and 6 % of control (dose: 89.4 mg/kg/injection, schedule: Q01DX011 (ip), vehicle: carboxymethylcellulose (CMC)); 3 % of control and 4 % of control (dose: 108.4 mg/kg/injection, schedule: Q01DX011 (ip), vehicle: carboxymethylcellulose (CMC)).
Turning to `Nc1nc(N)c(N=O)c(Nc2ccc(I)cc2)n1`, the T/C (dose: 0.5 mg/kg/injection, schedule: Q01DX011 (ip), vehicle: carboxymethylcellulose (CMC)) is 70 % of control; the T/C (dose: 1.0 mg/kg/injection, schedule: Q01DX011 (ip), vehicle: carboxymethylcellulose (CMC)) was 79 % of control and 80 % of control; the T/C (dose: 2.0 mg/kg/injection, schedule: Q01DX011 (ip), vehicle: carboxymethylcellulose (CMC)) is 62 % of control; the T/C (dose: 8.0 mg/kg/injection, schedule: Q01DX011 (ip), vehicle: carboxymethylcellulose (CMC)) is 34 % of control and 54 % of control and 59 % of control; the T/C (dose: 32.0 mg/kg/injection, schedule: Q01DX011 (ip), vehicle: carboxymethylcellulose (CMC)) is 25 % of control and 28 % of control and 40 % of control; the T/C (dose: 64.0 mg/kg/injection, schedule: Q01DX011 (ip), vehicle: carboxymethylcellulose (CMC)) is 17 % of control. Moreover, the T/C (dose: 128.0 mg/kg/injection, schedule: Q01DX011 (ip), vehicle: carboxymethylcellulose (CMC)) was 10 % of control.
`O=C(O)C(=O)c1ccc(-c2ccccc2)cc1`: the T/C was 99 % of control (dose: 3.7 mg/kg/injection, schedule: Q01DX011 (ip), vehicle: carboxymethylcellulose (CMC)); 100 % of control under setting [1]; 87 % of control under setting [2].
With `CC(=O)OC1C(CO)OC(n2cnc3c(=S)nc[nH]c32)C1OC(C)=O` (stereo unspecified), the T/C was 38 % of control (dose: 3.75 mg/kg/injection, schedule: Q01DX011 (ip), vehicle: carboxymethylcellulose (CMC)); 10 % of control under setting [1]; 5 % of control under setting [2]; 5 % of control and 7 % of control (dose: 30.0 mg/kg/injection, schedule: Q01DX011 (ip), vehicle: carboxymethylcellulose (CMC)); 7 % of control (dose: 60.0 mg/kg/injection, schedule: Q01DX011 (ip), vehicle: carboxymethylcellulose (CMC)); 6 % of control (dose: 120.0 mg/kg/injection, schedule: Q01DX011 (ip), vehicle: carboxymethylcellulose (CMC)).
Consider `O=C(Nc1ncnc2c1ncn2C1CC(OC(=O)c2ccc([N+](=O)[O-])cc2)C(COC(=O)c2ccc([N+](=O)[O-])cc2)O1)c1ccccc1` (stereo unspecified), for which the T/C reads like this: (dose: 16.7 mg/kg/injection, schedule: Q01DX011 (ip), vehicle: methylcellulose (MC)) 104 % of control; under setting [3], 102 % of control; (dose: 150.0 mg/kg/injection, schedule: Q01DX011 (ip), vehicle: methylcellulose (MC)) 62 % of control.
Take `Cn1cnc2c(ncn2C2CC(O)C(CO)O2)c1=O` (stereo unspecified): the T/C by setting is: (dose: 120.0 mg/kg/injection, schedule: Q01DX011 (ip), vehicle: saline) 105 % of control; (dose: 240.0 mg/kg/injection, schedule: Q01DX011 (ip), vehicle: saline) 98 % of control.
Take `O=c1[nH]cc(N(CCCl)CCCl)c(=O)[nH]1`: the T/C (dose: 0.17 mg/kg/injection, schedule: Q01DX011 (ip), vehicle: carboxymethylcellulose (CMC)) is 82 % of control; the T/C (dose: 0.21 mg/kg/injection, schedule: Q01DX011 (ip), vehicle: carboxymethylcellulose (CMC)) was 93 % of control and 94 % of control; the T/C (dose: 0.34 mg/kg/injection, schedule: Q01DX011 (ip), vehicle: carboxymethylcellulose (CMC)) was 86 % of control; the T/C (dose: 0.42 mg/kg/injection, schedule: Q01DX011 (ip), vehicle: carboxymethylcellulose (CMC)) was 53 % of control and 54 % of control; the T/C (dose: 0.67 mg/kg/injection, schedule: Q01DX011 (ip), vehicle: carboxymethylcellulose (CMC)) is 45 % of control; the T/C (dose: 0.68 mg/kg/injection, schedule: Q01DX011 (ip), vehicle: carboxymethylcellulose (CMC)) is 77 % of control and 80 % of control. The T/C is, setting by setting: (dose: 0.83 mg/kg/injection, schedule: Q01DX011 (ip), vehicle: carboxymethylcellulose (CMC)) 58 % of control; (dose: 1.11 mg/kg/injection, schedule: Q01DX011 (ip), vehicle: carboxymethylcellulose (CMC)) 59 % of control; (dose: 1.13 mg/kg/injection, schedule: Q01DX011 (ip), vehicle: carboxymethylcellulose (CMC)) 40 % of control; (dose: 1.35 mg/kg/injection, schedule: Q01DX011 (ip), vehicle: carboxymethylcellulose (CMC)) 22 % of control; (dose: 1.67 mg/kg/injection, schedule: Q01DX011 (ip), vehicle: carboxymethylcellulose (CMC)) 18 % of control; (dose: 1.69 mg/kg/injection, schedule: Q01DX011 (ip), vehicle: carboxymethylcellulose (CMC)) 27 % of control and 28 % of control.
In the case of `CCC(C)Cn1cnc2c(=S)nc(N)[nH]c21` (stereo unspecified), the T/C under setting [4] was 2 % of control.
Consider `Nc1nc(=S)c2ncn(C3CCCCC3)c2[nH]1`, for which the T/C (dose: 12.5 mg/kg/injection, schedule: Q01DX011 (ip), vehicle: methylcellulose (MC)) is 81 % of control; the T/C (dose: 25.0 mg/kg/injection, schedule: Q01DX011 (ip), vehicle: methylcellulose (MC)) was 86 % of control; the T/C under setting [3] is 50 % of control.
Take `CNc1nc(SCc2ccc(Cl)cc2Cl)ncc1C`: the T/C by setting is: under setting [4], 84 % of control; (dose: 31.0 mg/kg/injection, schedule: Q01DX011 (ip), vehicle: methylcellulose (MC)) 69 % of control; (dose: 62.0 mg/kg/injection, schedule: Q01DX011 (ip), vehicle: methylcellulose (MC)) 67 % of control; (dose: 125.0 mg/kg/injection, schedule: Q01DX011 (ip), vehicle: methylcellulose (MC)) 73 % of control; (dose: 250.0 mg/kg/injection, schedule: Q01DX011 (ip), vehicle: methylcellulose (MC)) 61 % of control.
`CO[C@H](C(=O)[C@@H](O)[C@@H](C)O)[C@@H]1Cc2cc3cc(OC4CC(OC5CC(O)C(O)C(C)O5)C(O)C(C)O4)c(C)c(O)c3c(O)c2C(=O)[C@H]1OC1CC(OC2CC(OC3CC(C)(O)C(O)C(C)O3)C(O)C(C)O2)C(O)C(C)O1` (stereo partly specified): the T/C (dose: 0.25 mg/kg/injection, schedule: Q01DX011 (ip), vehicle: saline) was 59 % of control; the T/C (dose: 0.25 mg/kg/injection, schedule: Q01DX011 (ip), vehicle: water) is 72 % of control; the T/C (dose: 0.5 mg/kg/injection, schedule: Q01DX011 (ip), vehicle: saline) is 57 % of control; the T/C (dose: 0.75 mg/kg/injection, schedule: Q01DX011 (ip), vehicle: water) is 16 % of control; the T/C (dose: 1.0 mg/kg/injection, schedule: Q01DX011 (ip), vehicle: saline) was 11 % of control.
With `Nc1nc(SCc2ccc([N+](=O)[O-])cc2)c2ncn(C3OC(CO)C(O)C3O)c2n1` (stereo unspecified), the T/C (dose: 18.75 mg/kg/injection, schedule: Q01DX011 (ip), vehicle: methylcellulose (MC)) was 23 % of control; the T/C (dose: 37.5 mg/kg/injection, schedule: Q01DX011 (ip), vehicle: methylcellulose (MC)) was 20 % of control; the T/C (dose: 75.0 mg/kg/injection, schedule: Q01DX011 (ip), vehicle: methylcellulose (MC)) is 8 % of control.
